Reference: paper PMC3760277 (Journal of neurovirology, 2013)
Read-outs that look alike come from different tables or passages of the source.

Legend:
[1] = cited from earlier work
[2] = Steady-state plasma pharmacokinetics; type: in vivo, HIV-infected patients (human); details: for AUC(0-t): AUC0–24, Visit 2 (day 21), ATV/RTV 300/100 mg once daily with CEP-1347 50 mg twice daily, arithmetic mean (SD), n=19
[3] = monkeys; background statement, ref not given; cited from earlier work
[4] = Safety and tolerability in the clinical study; type: in vivo, HIV-infected patients (human); details: CEP-1347 50 mg twice daily for 20 days with ATV/RTV and TDF/FTC
[5] = rats; background statement, ref not given; cited from earlier work
HIV-1 = assay: Plasma viral load during the 21-day study; type: in vivo, HIV-infected patients (human); details: day 21, antiretroviral therapy (ATV/RTV + TDF/FTC) with concurrent CEP-1347 50 mg twice daily; baseline 3.80±3.70
[6] = CEP-1347 50 mg twice daily with ATV/r, day 21, mean (SD)

Row | AUC0–24 GMR (90 % CI) ([2]; human, in vivo) | Cmax GMR (90 % CI) ([2]; human, in vivo) | R GMR (90 % CI) ([2]; human, in vivo) | Tmax GMR (90 % CI) ([2]; human, in vivo) | Cmax ([2]; human, plasma, oral) [ng/mL] | half-life ([2]; human, plasma, oral) [h] | half-life ([2]; human, plasma, oral, 50 mg) [h] | AUC(0-t) ([2]; human, plasma, oral) [ng·h/mL] | SMILES | Cmax ([2]; human, plasma, oral, 50 mg) [ng/mL] | Tmax ([2]; human, plasma, oral, 50 mg) [h] | also measured
1 | 1.30 (0.92–1.85) | 1.14 (0.79–1.67) | 1.12 (1.05–1.20) | 0.86 (0.67–1.11) | 4000 | 12.7 | 15.9 | 49600 | COC(=O)N[C@H](C(=O)N[C@@H](Cc1ccccc1)[C@@H](O)CN(Cc1ccc(-c2ccccn2)cc1)NC(=O)[C@@H](NC(=O)OC)C(C)(C)C)C(C)(C)C [ATV, Atazanavir] | 4500 | 2 | clearance ([1]; population analysis, patients given ATV/r at 300/100 mg/day, ref Colombo et al. 2006): 12.9 L/h; clearance ([1]; previously reported in patients, ref Haberl et al. 2010): 8.5 L/h; Clss/F ([2]; Visit 1 (day 1), ATV/RTV before CEP-1347, mean (SD)): 12.0 (10.3) L/h; Clss/F ([2]; Visit 1 (day 1), ATV/RTV before CEP-1347, mean (SD), listed as atazanavir): 12.0 L/h; Clss/F ([2]; Visit 2 (day 21), ATV/RTV with CEP-1347 50 mg twice daily, mean (SD)): 9.3 (10.7) L/h; Clss/F GMR (90 % CI) ([2]; human, in vivo): 0.77 (0.54–1.09); increase in T1/2 ([2]; human, in vivo): 31%; increase in accumulation ratio (R) ([2]; human, in vivo): 15%; Tmax ([2]; human, plasma, oral): 2 h
2 | 1.12 (0.90, 1.39) | 1.07 (0.85, 1.34) | 1.05 (0.94, 1.16) | 0.89 (0.79, 1.15) | 1400 | 5.9 | 5.8 | 13200 | CC(C)c1nc(CN(C)C(=O)N[C@H](C(=O)N[C@@H](Cc2ccccc2)C[C@H](O)[C@H](Cc2ccccc2)NC(=O)OCc2cncs2)C(C)C)cs1 [RTV, Ritonavir] |  |  | T1/2 GMR (90 % CI) ([2]; human, in vivo): 1.20 (0.92, 1.56)

Row | SMILES | AUC0–24 GMR (90 % CI) ([2]; human, in vivo) | Cmax GMR (90 % CI) ([2]; human, in vivo) | R GMR (90 % CI) ([2]; human, in vivo) | Tmax GMR (90 % CI) ([2]; human, in vivo) | Cmax ([2]; human, plasma, oral) [ng/mL] | half-life ([2]; human, plasma, oral) [h] | half-life ([2]; human, plasma, oral, 50 mg) [h] | AUC(0-t) ([2]; human, plasma, oral) [ng·h/mL] | Cmax ([2]; human, plasma, oral, 50 mg) [ng/mL] | Tmax ([2]; human, plasma, oral, 50 mg) [h] | also measured
3 | CCSCc1ccc2c(c1)c1c3c(c4c5cc(CSCC)ccc5n5c4c1n2[C@H]1C[C@](O)(C(=O)OC)[C@]5(C)O1)CNC3=O [CEP-1347] |  |  |  |  |  |  | 35.2 |  | 427 | 3 | recovery of single oral doses in feces [3]: at least 95%; Clss/F [2, 6]: 22.3 (15.3) L/h; R (accumulation ratio) [2, 6]: 5.1 (1.5); AUC ([2]; human, plasma, oral, 50 mg): 2630 ng·h/mL; tolerability [4]: well tolerated; recovery of single oral doses in feces [5]: at least 95%; average plasma viral load (HIV-1): 2.41±2.03 log copies/mL
